{
  "source": "paper PMC6130680",
  "about": "“In vitro and in vivo antidiabetic potential of extracts and a furostanol saponin from Balanites aegyptiaca” (Pharmaceutical Biology, 2017)",
  "key": {"[1]": {"biological_target": "α-Glucosidase enzyme from Brewer's yeast (EC 3.2.1.20)", "experiment": "α-glucosidase (AG) inhibition assay", "type": "biochemical", "conditions": "mean ± standard error; substrate p-NPG; a dash for a tested fraction or compound means no AG activity", "excerpt": "(§1) The positive control, acarbose, was purchased from Bayer Pharmaceuticals Pty, Ltd. (Wayne, NJ). Human recombinant aldose reductase and DL-glyceraldehyde were purchased from Wako Pure Chemical Industries, Ltd. (Osaka, Japan). Gliclazide was obtained from Servier Canada (Laval, QC, Canada). Pre-coated silica plates 60 GF254 (20 × 20 cm) (Fluka, Steinheim, Germany) were used for thin-layer chromatography (TLC). Silica gel H (Merck, Darmstadt, Germany) and Lichroprep RP-18 silica gel (15–25 μm, Merck, Darmstadt, Germany) were used for vacuum liquid chromatography (VLC). Silica gel 60 (70–230 mesh ASTM, Fluka, Steinheim, Germany), Diaion HP 20 (Sigma-Aldrich, St. Louis, MO), and Sephadex LH-20 (Sigma-Aldrich, Steinheim, Sweden) were used for column chromatography (CC). Spots were visualized by spraying with p-anisaldehyde/sulphuric acid.\n(§2) AG and AR inhibitory activities of MeEx, ClFr, BuFr, AqFr, as well as the Diaion fractions D1–D6 were tested. AG inhibition was measured spectrophotometrically in a 96-well microplate reader using a procedure reported by Li et al. ([2009]). Acarbose was used as a positive control. The AR (EC 1.1.1.21) inhibitory activity was measured according to the procedure previously reported (Nishimura et al. [1991]). The experiments were repeated three times, and the IC50 values were calculated and expressed as mean ± standard error."}, "[2]": {"biological_target": "T1, Human recombinant aldose reductase (Homo sapiens, UniProt P15121)", "T1 construct": "purchased Wako Pure Chemical Industries, Ltd. (Osaka, Japan)", "experiment": "aldose reductase (AR) inhibition assay", "type": "biochemical", "conditions": "mean ± standard error", "excerpt": "as §1, §2"}, "[3]": {"system": "STZ-induced diabetic rats", "experiment": "in vivo antidiabetic activity in STZ-induced diabetic rats", "set-up": "species or system male albino rats (Wistar strain)", "conditions": "for Glucose level: fasting serum; for Glucose level / C-peptide / Cholesterol level / Insulin / Triglycerides: mean ± SEM, n = 6; for C-peptide / Cholesterol level / Insulin / Triglycerides: serum", "procedure": "(§3) Male albino rats (Wistar strain, 150–200 g) and male mature albino mice of 20–25 g were obtained from the animal house colony of the National Research Center, Egypt. The experimental protocol followed the Institutional Animal Ethical Committee of the National Research Centre. The acute toxicity studies were performed on the mice. […] The animals survived and then four additional animals were tested sequentially so that a total of five animals were tested.\nDM was induced by a single i.p. injection of STZ (55 mg/kg) in rats (Brosky and Logothetopoulos [1969]). Only rats with serum glucose levels of more than 250 mg/dL were selected and considered diabetic animals. MeEx, its active fraction (BuFr) and the active compound 3 were tested in the STZ-induced diabetic rats at two dose levels (100 and 200 mg/kg.b/wt) for 2 weeks. At the end of the 2-weeks treatment period, the animals were kept for an overnight fasting and the blood samples were collected from the retroorbital plexus and allowed to clot for 30 min at room temperature. These blood samples were centrifuged at 5000 rpm for 20 min and the serum was separated and stored at −80 °C until analysis was done. Serum samples were analyzed spectrophotometrically for serum glucose, triglycerides and cholesterol. Serum glucose was estimated by glucose oxidase–peroxidase method test agent kit (Stanbio, Boerne, TX) (Cheyne and Gilmore [1973]). Triglycerides were estimated by enzymatic methods by using a diagnostic kit (Biodiagnostic, Cairo, Egypt) (Fossati and Prencipe [1982]). Total cholesterol was estimated by enzymatic methods by using a diagnostic kit (Biodiagnostic, Cairo, Egypt) (Allain et al. [1974]). Serum insulin was estimated by a […] using the ALPCO Insulin (Rat) ELISA kit (Judzewitsch et al. [1982]). Serum C-peptide was measured with a rat insulin enzyme-linked immune absorbent assay kit (C-Peptide EIA Kit, Sigma-Aldrich, St. Louis, MO). Results were expressed as mean ± SEM for biochemical estimations. The quantitative data were analyzed by ANOVA followed by Tukey multiple comparison tests. The Kruskal–Wallis test was used for the quantitative analysis of the histopathology score values. Results were considered to be significant at p < 0.05."}, "male mature albino mice": {"system": "male mature albino mice", "experiment": "acute toxicity study in mice", "type": "in vivo", "conditions": "ascending oral doses up to 2000 mg/kg, observed closely for 24 h and daily for 14 days", "procedure": "as §3\nThe acute toxicities of the three samples (MeEx, BuFr and compound 3) were studied where the mice took ascending oral doses up to 2000 mg/kg of each sample. They were observed closely for 24 h and daily for 14 days, where no mortality was observed."}, "[4]": {"conditions": "200 mg/kg for 2 weeks, versus diabetic control"}},
  "note": "Marks after values point to notes of the source that are not given here.",
  "data": [
    {"molecule": "C[C@H]1O[C@H](O[C@H]2[C@H](O)[C@@H](O)[C@@H](O[C@H]3[C@H](O)[C@@H](O)C(O)O[C@@H]3CO)O[C@@H]2CO)[C@H](O)[C@@H](O)[C@@H]1N[C@H]1C=C(CO)[C@@H](O)[C@H](O)[C@H]1O", "note": "(stereo partly shown) [Acarbose, acarbose, reference compound]", "values": [
      {"measurement": "AG inhibition IC50", "setting": "[1]", "result": "24.00 ± 2.31", "unit": "µg/mL"}
    ]},
    {"molecule": "CC[C@H](/C=C/C(C)C1CCC2C3CC=C4C[C@@H](O[C@@H]5O[C@H](CO)[C@@H](O)[C@H](O)[C@H]5O)CCC4(C)C3CCC12C)C(C)C", "note": "(stereo partly drawn) [Compound 1, stigmasterol-3-O-β-D-glucopyranoside]", "values": [
      {"measurement": "AR inhibition IC50", "setting": "[2]", "result": "inactive"},
      {"measurement": "IC50", "setting": "[2]", "result": 49.7, "unit": "µM"}
    ]},
    {"molecule": "CC(O)C1C(O)CC2C3CC=C4CC(OC5OC(CO)C(O)C(O)C5O)CCC4(C)C3CCC21C", "note": "[Compound 2, pregn-5-ene-3β,16β,20(R)-triol 3-O-β-D-glucopyranoside]", "values": [
      {"measurement": "AR inhibition IC50", "setting": "[2]", "result": "inactive"},
      {"measurement": "IC50", "setting": "[2]", "result": 24.6, "unit": "µM"}
    ]},
    {"molecule": "COC1(CC[C@@H](C)CO[C@@H]2O[C@H](CO)[C@@H](O)[C@H](O)[C@H]2O)OC2C[C@H]3[C@@H]4CC=C5C[C@@H](O[C@@H]6O[C@H](CO)[C@@H](O[C@@H]7O[C@H](CO)[C@@H](O)[C@H](O)[C@H]7O)[C@H](O)[C@H]6O[C@@H]6O[C@@H](C)[C@H](O)[C@@H](O)[C@H]6O)CC[C@]5(C)[C@H]4CC[C@]3(C)C2[C@@H]1C", "note": "(stereo partly drawn) [Compound 3, 26-(O-β-D-glucopyranosyl)-22-O-methylfurost-5-ene-3β,26-diol-3-O-β-D-glucopyranosyl-(1 → 4)-[α-L-rhamnopyranosyl-(1 → 2)]-β-D-glucopyranoside]", "values": [
      {"measurement": "AG inhibition IC50", "setting": "[1]", "result": "03.12 ± 0.17", "unit": "µg/mL"},
      {"measurement": "IC50", "setting": "[2]", "result": 0.964, "unit": "µM"},
      {"measurement": "Glucose level", "setting": "[3]; 100 mg/kg for 2 weeks", "result": "207.4 ± 18.33^a mg/dL"},
      {"measurement": "C-peptide", "setting": "[3]; 100 mg/kg for 2 weeks", "result": "1.42 ± 0.07^a ng/mL"},
      {"measurement": "Cholesterol level", "setting": "[3]; 100 mg/kg for 2 weeks", "result": "139.2 ± 10.30", "unit": "mg/dL"},
      {"measurement": "Insulin", "setting": "[3]; 100 mg/kg for 2 weeks", "result": "1.99 ± 0.04^a μIU/mL"},
      {"measurement": "Triglycerides", "setting": "[3]; 100 mg/kg for 2 weeks", "result": "112.2 ± 9.89", "unit": "mg/dL"},
      {"measurement": "Glucose level", "setting": "[3]; 200 mg/kg for 2 weeks", "result": "122.2 ± 18.22^b mg/dL"},
      {"measurement": "C-peptide", "setting": "[3]; 200 mg/kg for 2 weeks", "result": "2.04 ± 0.06^b ng/mL"},
      {"measurement": "Cholesterol level", "setting": "[3]; 200 mg/kg for 2 weeks", "result": "115.6 ± 7.12^b mg/dL"},
      {"measurement": "Insulin", "setting": "[3]; 200 mg/kg for 2 weeks", "result": "3.17 ± 0.28^b μIU/mL"},
      {"measurement": "Triglycerides", "setting": "[3]; 200 mg/kg for 2 weeks", "result": "113.5 ± 7.73", "unit": "mg/dL"},
      {"measurement": "increase in C-peptide level", "setting": "[3]; [4]", "result": 65, "unit": "%"},
      {"measurement": "reduction in fasting blood/plasma glucose level", "setting": "[3]; [4]", "result": 51.39, "unit": "%"},
      {"measurement": "reduction in total cholesterol level", "setting": "[3]; [4]", "result": 31.19, "unit": "%"},
      {"measurement": "reduction in total cholesterol level", "setting": "[3]; 200 mg/kg for 2 weeks, versus diabetic control, listed as furostanol saponin 3", "result": 31.9, "unit": "%"},
      {"measurement": "mortality (acute toxicity)", "setting": "male mature albino mice", "result": "no mortality"}
    ]},
    {"molecule": "Cc1ccc(S(=O)(=O)NC(=O)NN2CC3CCCC3C2)cc1", "note": "(stereo not shown) [Gliclazide, reference compound]", "values": [
      {"measurement": "Glucose level", "setting": "[3]; 10 mg/kg (standard drug)", "result": "93.09 ± 5.80^b mg/dL"},
      {"measurement": "C-peptide", "setting": "[3]; 10 mg/kg (standard drug)", "result": "1.78 ± 0.11", "unit": "ng/mL"},
      {"measurement": "Cholesterol level", "setting": "[3]; 10 mg/kg (standard drug)", "result": "125.3 ± 5.98^b mg/dL"},
      {"measurement": "Insulin", "setting": "[3]; 10 mg/kg (standard drug)", "result": "2.82 ± 0.18^a^,^b μIU/mL"},
      {"measurement": "Triglycerides", "setting": "[3]; 10 mg/kg (standard drug)", "result": "103.7 ± 9.73", "unit": "mg/dL"},
      {"measurement": "reduction in cholesterol level", "setting": "[3]; 10 mg/kg (standard drug), versus diabetic control", "result": 25.42, "unit": "%"}
    ]}
  ]
}
